Test results published in publication PMC8583760, “Pharmacokinetic interaction between rhynchopylline and pellodendrine via CYP450 enzymes and P-gp” (Pharmaceutical Biology, 2021).

How the values were obtained:
CYP1A2 = molecular target: T1, CYP1A2 (Rattus norvegicus, UniProt P04799); test: CYP probe substrate depletion in rat liver microsomes, HPLC; format: biochemical; conditions: typical CYP1A2 substrate (not named); 0-100 μM inhibitor
T1 construct: native full-length enzyme in rat liver microsomes
T1 sequence (P04799 2-513): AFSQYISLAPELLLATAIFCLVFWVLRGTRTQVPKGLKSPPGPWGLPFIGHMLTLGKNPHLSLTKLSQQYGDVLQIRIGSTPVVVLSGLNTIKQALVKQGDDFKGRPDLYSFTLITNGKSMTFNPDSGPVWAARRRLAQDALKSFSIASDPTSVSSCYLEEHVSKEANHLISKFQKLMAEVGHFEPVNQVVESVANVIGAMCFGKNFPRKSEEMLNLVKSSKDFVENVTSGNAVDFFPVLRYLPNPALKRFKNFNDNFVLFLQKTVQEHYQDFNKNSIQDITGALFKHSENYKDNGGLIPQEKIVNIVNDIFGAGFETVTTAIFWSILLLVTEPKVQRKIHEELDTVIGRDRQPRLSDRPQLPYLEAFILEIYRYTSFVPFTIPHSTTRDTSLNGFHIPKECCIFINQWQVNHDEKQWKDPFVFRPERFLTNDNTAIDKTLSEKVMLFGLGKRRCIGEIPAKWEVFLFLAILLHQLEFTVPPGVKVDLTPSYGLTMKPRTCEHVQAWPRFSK

CYP2C9 = system: T2, CYP2C9; test: as above; format: biochemical; conditions: typical CYP2C9 substrate (not named); 0-100 μM inhibitor
T2 construct: gene Cyp2c11; native enzyme activity in rat liver microsomes

COc1cc2c(cc1O)C[C@H]1c3cc(O)c(OC)cc3CC[N@@+]1(C)C2 [pellodendrine]
IC50 (CYP1A2): 23 µM | IC50 (CYP2C9): 16.2 µM
